Patent US11725036B2, “Modified lipidated relaxin B chain peptides and their therapeutic use” (Sanofi, priority 2018, dated 2023)
Converted amounts (≈) assume the structure as drawn. Where two headings read alike, the source gives them in different places. Starred links: 1 amine or outer side, 2 acyl side, 3 side chain; linkers in the order of their positions; H or OH if unused. Non-standard residues stand in square brackets, D forms with d. Residues, ends and D or L forms follow the SMILES beside them. Groups on a side chain read outwards from the residue. *: point of attachment. X3 = CCCCCCCCCCCCCCCCCC(=O)N[C@@H](CCC(=O)N[C@@H](CCC(=O)N[C@@H](CCC(=O)NCCCOCCOCCOCCCNC(=O)CCC(=O)NCCCOCCOCCOCCCNC(=O)CCC(=O)NCCCOCCOCCOCCCN*)C(=O)O)C(=O)O)C(=O)O; Suc = O=C(CCC(=O)[*:2])[*:1]; αMeK = C[C@](N)(CCCCN)C(=O)O; Aib = CC(C)(N)C(=O)O

Key:
[1] = Solubility testing in buffer; assay type: physicochemical; settings: target solubility 10.0 mg/ml
Stability in rat plasma = assay type: in vitro ADME; settings: for Rat plasma stability % remaining: T = 0, 37° C., 5 μM
Description: (§1) Prior to the testing of stability in plasma (or blood) of a peptide batch, its purity (HPLC-UV) was determined.
(§2) Rat and Human plasma: anti-coagulant sodium or lithium heparin.
(§3) 100 μM solution of study compound in 50 mM phosphate buffer pH 7.4.
(§4) 950 μL plasma (or blood) was pre-incubated for 5 min at 37° C. 50 μL of compound stock solution was added. Final compound concentration=5 μM. Vortex and transfer 150 μL plasma (or blood) into an Eppendorf for each time point. The time points […] were carried out in duplicate for each species.
(§5) After incubation, 150 μL plasma (or blood) was extracted with 600 μL Acetonitrile containing 1% TFA. Said mixture was then vortexed and centrifuged 10 min at 14600 rpm. 200 μL supernatant was dried under N2. Sample was then reconstituted in 200 μL of H2O/CH3CN 98/2+0.1% FA+50 ng/ml Labetalol and analyzed using the analytical system used in solubility and stability studies.
(§6) For determination of the amount of the remaining peptide, the peak areas of the target compound at t0 and each time point […] were compared, resulting in “% remaining peptide”, following the equation: % remaining peptide=[(peak area peptide time)×100]/peak area peptide t0. The stability was expressed as “% remaining peptide”.

[2] = Stability in human plasma; assay type: in vitro ADME; settings: for Human Plasma stability % remaining: T = 0, 37° C., 5 μM; for remaining at 1 h, 5 μM / remaining at 4 h, 5 μM: human, plasma (sodium or lithium heparin), 37° C.
Description: as §1, §2, §3, §4, §5, §6

in vivo = test: in vivo; design: species or system Sprague Dawley rats; settings: Sprague Dawley, rat; for bioavailability / Cmax / Tmax: sc; for Cmax / Tmax: 3 mg/kg
Description: Prior to the testing of a peptide batch, its purity (HPLC-UV) was determined. Dose was corrected for presence of salts, solvent and purity. Bioanalytical screening method for quantification of peptides in rat: Sprague Dawley rats were dosed with study peptide at a dose of 1 mg/kg intravenously (i.v.) or 3 mg/kg subcutaneously (s.c.) as a solution in PBS (0.2 mg/ml and 0.6 mg/ml respectively). Blood samples were collected after: 0.083, 0.25, 0.5, 1, 2, 4, 8, 24, 48 and 72 h (i.v. route) and 0.25, 0.5, 1, 2, 4, 6, 8, 10, 24, 48 and 72 h (s.c route) post application. Plasma samples were analyzed after protein precipitation via liquid chromatography mass spectrometry (LC/MS). PK parameters and half-life were calculated using Phoenix 64 (WinNonlin 6.4)-Pharsight (Certara™) (non-compartment model). Values below the limit of quantification (BLQ) were replaced by zero for subsequent calculations and PK analysis. T½: in-vivo half-life, time required for test compound plasma concentration to be divided by two during the PK experiment. C0: Extrapolated test compound plasma concentration at t=0 time point (i.v. route). Cmax: maximal test compound plasma concentration at the indicated time point (s.c. route). Tmax: Time point where Cmax was attained. F %: s.c. vs i.v. bioavailability, dose-corrected area under curve (AUC) s.c. route divided by AUC i.v.

RXFP1 = target: T1, RXFP1 (Homo sapiens, UniProt Q9HBX9); test: OVCAR5 cAMP assay (HTRF); assay type: cell-based; settings: for EC50: OVCAR 5 cells expressing endogenous RXFP1, cAMP readout; for Emax: OVCAR 5 cells, maximal cAMP relative to H2-relaxin
T1 construct: OVCAR5 cells expressing endogenous RXFP1; endogenous in cells; host or cells: OVCAR5
T1 sequence (Q9HBX9 1-757): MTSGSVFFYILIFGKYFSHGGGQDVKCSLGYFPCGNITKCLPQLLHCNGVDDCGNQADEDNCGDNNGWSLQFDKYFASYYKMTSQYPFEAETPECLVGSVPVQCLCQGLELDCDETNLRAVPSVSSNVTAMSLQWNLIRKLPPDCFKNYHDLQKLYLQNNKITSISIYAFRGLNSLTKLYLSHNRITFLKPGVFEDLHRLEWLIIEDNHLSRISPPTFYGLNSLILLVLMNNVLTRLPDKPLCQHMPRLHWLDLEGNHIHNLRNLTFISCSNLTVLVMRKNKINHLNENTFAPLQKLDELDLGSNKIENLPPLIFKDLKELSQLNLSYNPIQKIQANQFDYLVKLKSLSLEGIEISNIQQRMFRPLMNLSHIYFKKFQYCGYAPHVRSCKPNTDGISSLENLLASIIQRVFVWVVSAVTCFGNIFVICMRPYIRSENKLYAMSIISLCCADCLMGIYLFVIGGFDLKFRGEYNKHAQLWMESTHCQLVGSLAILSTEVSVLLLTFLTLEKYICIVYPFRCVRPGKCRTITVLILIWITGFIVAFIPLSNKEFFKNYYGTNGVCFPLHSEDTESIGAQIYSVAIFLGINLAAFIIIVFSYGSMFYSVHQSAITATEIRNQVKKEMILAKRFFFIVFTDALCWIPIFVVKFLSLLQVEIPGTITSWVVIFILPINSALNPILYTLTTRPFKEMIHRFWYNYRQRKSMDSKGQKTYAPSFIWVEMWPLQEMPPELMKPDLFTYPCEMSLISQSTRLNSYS
Summary of the method: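 Endogenous RXFP1 in OVCAR5 cells, pretreated 40 min at 37° C with 1 mM IBMX, then exposed to increasing peptide concentrations in serum-free medium for 30 min at 37° C. cAMP read by HTRF; EC50 by variable-slope sigmoidal fit, Emax as % of H2-relaxin maximal cAMP in same run.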

[3] = acetate buffer 50 mM pH 4.5, read-out: Solubility Acetate buffer pH 4.5
[4] = phosphate buffer 50 mM pH 7.4, read-out: Solubility phosphate buffer pH 7.4
[5] = rat, plasma (sodium or lithium heparin), 37° C.

Row | Molecule | solubility [1, 3] [mg/mL] | solubility [1, 4] [mg/mL] | Rat plasma stability % remaining (Stability in rat plasma) [%] | remaining at 1 h, 5 μM (Stability in rat plasma; [5]) [%] | remaining at 4 h, 5 μM (Stability in rat plasma; rat, plasma (sodium or lithium heparin), 4 h, 37° C.) [%] | Human Plasma stability % remaining [2] [%] | remaining at 1 h, 5 μM [2] [%] | remaining at 4 h, 5 μM [2] [%] | C0 (in vivo; iv, 1 mg/kg) [µM] | half-life (in vivo; iv, 1 mg/kg) [h] | bioavailability (in vivo) [%] | Cmax (in vivo) [µM] | Tmax (in vivo) [h] | EC50 (RXFP1) [nM] | Emax (RXFP1) [%] | T½ (h), in-vivo half-life (in vivo; iv, 1 mg/kg) [h]
1 | CCCCCCCCCCCCCCCCCC(=O)N[C@@H](CCC(=O)N[C@@H](CCC(=O)N[C@@H](CCC(=O)NCCCOCCOCCOCCCNC(=O)CCC(=O)NCCCOCCOCCOCCCNC(=O)CCC(=O)NCCCOCCOCCOCCCNC(=O)CCC(=O)NCCCC[C@H](NC(=O)CNC(=O)[C@H](CCC(=O)O)NC(=O)C(C)(C)NC(=O)C(C)(C)NC(=O)[C@@H](NC(=O)[C@H](CCCCNC(C)=O)NC(=O)[C@H](C)NC(=O)[C@H](CCCNC(=N)N)NC(=O)[C@@H](NC(=O)[C@H](CCCCN)NC(=O)[C@H](CCC(=O)O)NC(=O)[C@H](CCCNC(=N)N)NC(=O)CNC(=O)[C@H](CCC(=O)O)NC(=O)[C@H](CC(C)C)NC(C)=O)C(C)C)[C@@H](C)CC)C(=O)N[C@@H](CO)C(=O)N[C@H](C(=O)N[C@@H](Cc1ccccc1)C(=O)N[C@@H](CO)C(=O)N[C@@](C)(CCCCN)C(=O)N[C@@H](CCCNC(=N)N)C(=O)N[C@@H](C)C(=O)N[C@@H](CCCCNC(C)=O)C(N)=O)[C@@H](C)O)C(=O)O)C(=O)O)C(=O)O [compound 7] (Ac-LEGREKVRAK(Ac)I[Aib][Aib]EGK([Suc-X3])STFS[αMeK]RAK(Ac)-NH2) | 11.5 (≈ 2610 µM) | 11.8 (≈ 2700 µM) | 77 | 100 | 66 | 92 | 94 | 87 | 4.16 | 6.34 | 61 | 1.53 | 10 | 0.07 | 95 | 
2 | H-VIKLSGRELVRAQIAISGMSTWSKRSL-NH2 [B7-33 C11.23S, reference compound] |  |  | 100 |  |  | 100 |  |  |  |  |  |  |  |  |  | 
3 | CCCCCCCCCCCCCCCCCC(=O)N[C@@H](CCC(=O)N[C@@H](CCC(=O)N[C@@H](CCC(=O)NCCCOCCOCCOCCCNC(=O)CCC(=O)NCCCOCCOCCOCCCNC(=O)CCC(=O)NCCCOCCOCCOCCCNC(=O)CCC(=O)NCCCC[C@H](NC(=O)CNC(=O)[C@H](CCC(=O)O)NC(=O)C(C)(C)NC(=O)C(C)(C)NC(=O)[C@@H](NC(=O)[C@H](CCCCNC(C)=O)NC(=O)[C@H](C)NC(=O)[C@H](CCCNC(=N)N)NC(=O)[C@@H](NC(=O)[C@H](CCCCN)NC(=O)[C@H](CCC(=O)O)NC(=O)[C@H](CCCNC(=N)N)NC(=O)CNC(=O)[C@H](CCC(=O)O)NC(=O)[C@H](CC(C)C)NC(C)=O)C(C)C)[C@@H](C)CC)C(=O)N[C@@H](CO)C(=O)N[C@H](C(=O)N[C@@H](Cc1c[nH]c2ccccc12)C(=O)N[C@@H](CO)C(=O)NC(C)(C)C(=O)N[C@@H](CCCNC(=N)N)C(=O)N[C@@H](CCCCN)C(=O)N[C@@H](CCCCNC(C)=O)C(N)=O)[C@@H](C)O)C(=O)O)C(=O)O)C(=O)O [compound 20] (Ac-LEGREKVRAK(Ac)I[Aib][Aib]EGK([Suc-X3])STWS[Aib]RKK(Ac)-NH2) | 9.34 (≈ 2110 µM) | 9.95 (≈ 2250 µM) | 100 | 100 |  | 87 | 100 | 83 | 3.09 |  | 80 | 1.99 | 10 | 0.15 | 96 | 5.13
4 | Ac-VIKLSGRELVRAQIAISGMSTWSKKKK-NH2 [KKKK(AcB7-29 C11.23S), reference compound] |  |  | 100 |  |  | 100 |  |  |  |  |  |  |  |  |  | 
